Source: patent publication US8853392B2, “Benzamide mGluR5 positive allosteric modulators and methods of making and using same” (Vanderbilt University, priority 2007, dated 2014)
pEC50: −log10 of the molar value. Read-outs that look alike come from different tables or passages of the source.

Target: T1, rat mGluR5 (Rattus norvegicus, UniProt P31424)
T1 construct: expressed in transfected cells; host or cells: human embryonic kidney (HEK) cells
Assay: potentiation of mGluR5 response to glutamate, Ca2+ fluorescence (FDSS) in HEK cells transfected with rat mGluR5
Type: cell-based
Conditions: for pEC50: read-out: EC50
Experimental: Human embryonic kidney (HEK) cells transfected with rat mGluR5 were plated in clear bottom assay plates for assay in a Functional Drug Screening System (FDSS). The cells were loaded with a Ca^2+-sensitive fluorescent dye (e.g., Fluo-4), and the plates were washed and placed in the FDSS instrument. After establishment of a fluorescence baseline for twelve seconds, the compounds of the present invention were added to the cells, and the response in cells was measured. Five minutes later, an mGluR5 agonist (e.g., glutamate, 3,5-dihydroxyphenylglycine, or quisqualate) was added to the cells, and the response of the cells was measured. Potentiation of the agonist response of mGluR5 by the compounds in the present invention was observed as an increase in response to non-maximal concentrations of agonist (here, glutamate) in the presence of compound compared to the response to agonist in the absence of compound.
The above described assay operated in two modes. In the first mode, a range of concentrations of the present compounds were added to cells, followed by a single fixed concentration of agonist. If a compound acted as a potentiator, an EC50 value for potentiation and a maximum extent of potentiation by the compound at this concentration of agonist was determined by non-linear curve fitting. In the second mode, several fixed concentrations of the present compounds were added to various wells on a plate, followed by a range of concentrations of agonist for each concentration of present compound; the EC50 values for the agonist at each concentration of compound were determined by non-linear curve fitting. A decrease in the EC50 value of the agonist with increasing concentrations of the present compounds (a leftward shift of the agonist concentration-response curve) is an indication of the degree of mGluR5 potentiation at a given concentration of the present compound. An increase in the EC50 value of the agonist with increasing concentrations of the present compounds (a rightward shift of the agonist concentration-response curve) is an indication of the degree of mGluR5 antagonism at a given concentration of the present compound. The second mode also indicates whether the present compounds also affect the maximum response to mGluR5 to agonists.
Human embryonic kidney (HEK) cells transfected with rat mGluR5 were plated in clear-bottomed, poly-D-lysine-coated assay plates in glutamate-glutamine-free medium growth and incubated overnight at 37° C. in 5% CO2. The following day, cells were loaded with 2 μM calcium indicator dye, fluo-4 AM, for 1 h at 37° C. Dye was removed and replaced with assay buffer containing 1× Hanks balanced salt solution (Invitrogen, Carlsbad, Calif.), 20 mM HEPES, and 2.5 mM probenecid, pH 7.4. Cell plates were then loaded into the Functional Drug Screening System 6000 (FDSS 6000, Hamamatsu, Japan). After establishment of a fluorescence baseline for twelve seconds, the compounds of the present invention were added to the cells, and the response in cells was measured. Five minutes later, an mGluR5 agonist (e.g., glutamate, 3,5-dihydroxyphenylglycine, or quisqualate) was added to the cells, and the response of the cells was measured during a 1 minute incubation with agonists. Typically, the effect of test compounds of the present invention was on an EC20 concentration of glutamate was measured. All test compounds were dissolved and diluted in 100% DMSO and then serially diluted into assay buffer for a 2.5× stock in 0.25% DMSO; stock compounds were then added to the assay for a final DMSO concentration of 0.1%. Calcium fluorescence measures were recorded as fold over basal fluorescence; raw data was then normalized to the maximal response to agonist. Potentiation of the agonist response of mGluR5 by the compounds in the present invention was observed as an increase in response to non-maximal concentrations of agonist (here, glutamate) in the presence of compound compared to the response to agonist in the absence of compound. […]

[1] = Table 1, EC50 for potentiating the mGluR5 receptor, unit inferred
[2] = HEK293, read-out: % Glu Max, maximum extent of potentiation, normalized to maximal response to glutamate, SAR tables
[3] = potentiation of glutamate response, HEK cells transfected with rat mGluR5, SAR tables
[4] = HEK293, maximum extent of potentiation, normalized to maximal response to glutamate, SAR tables, read-out: % Glu Max

T1 sequence (P31424 21-1203): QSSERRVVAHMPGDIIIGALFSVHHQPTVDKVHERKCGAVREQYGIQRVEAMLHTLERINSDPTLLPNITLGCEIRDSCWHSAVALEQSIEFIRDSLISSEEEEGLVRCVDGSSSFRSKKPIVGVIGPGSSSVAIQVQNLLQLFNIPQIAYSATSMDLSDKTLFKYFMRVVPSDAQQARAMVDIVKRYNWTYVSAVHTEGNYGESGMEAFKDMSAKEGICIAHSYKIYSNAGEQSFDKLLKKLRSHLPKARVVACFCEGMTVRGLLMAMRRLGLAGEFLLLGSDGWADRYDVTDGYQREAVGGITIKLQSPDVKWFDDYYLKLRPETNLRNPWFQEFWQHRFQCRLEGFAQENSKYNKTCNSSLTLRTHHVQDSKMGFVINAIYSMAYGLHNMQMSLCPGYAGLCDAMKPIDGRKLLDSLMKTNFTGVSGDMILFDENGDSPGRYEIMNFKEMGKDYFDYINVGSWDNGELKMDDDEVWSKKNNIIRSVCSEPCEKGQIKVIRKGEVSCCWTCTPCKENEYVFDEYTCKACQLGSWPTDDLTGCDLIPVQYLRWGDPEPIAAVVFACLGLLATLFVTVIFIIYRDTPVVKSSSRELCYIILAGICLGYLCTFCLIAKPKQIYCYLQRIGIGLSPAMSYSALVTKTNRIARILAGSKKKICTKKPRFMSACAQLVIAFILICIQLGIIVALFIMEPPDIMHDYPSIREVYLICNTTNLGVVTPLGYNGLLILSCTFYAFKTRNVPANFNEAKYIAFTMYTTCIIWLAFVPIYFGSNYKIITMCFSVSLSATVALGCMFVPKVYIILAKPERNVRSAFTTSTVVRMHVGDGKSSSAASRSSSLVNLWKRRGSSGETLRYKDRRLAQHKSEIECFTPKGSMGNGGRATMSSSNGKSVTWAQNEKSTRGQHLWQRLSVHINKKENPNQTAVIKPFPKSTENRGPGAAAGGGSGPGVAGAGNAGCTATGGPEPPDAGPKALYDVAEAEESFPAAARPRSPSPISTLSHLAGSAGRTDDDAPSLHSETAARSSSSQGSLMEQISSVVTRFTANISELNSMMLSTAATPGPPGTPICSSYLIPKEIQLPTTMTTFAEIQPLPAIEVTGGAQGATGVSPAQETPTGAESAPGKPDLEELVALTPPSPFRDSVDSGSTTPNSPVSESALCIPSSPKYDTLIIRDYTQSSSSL

Row | Structure (SMILES) | pEC50 [1] | Emax [2] [%] | pEC50 [3] | Emax [4] [%]
1 | C[C@@H](CNC(=O)c1ccc(C#Cc2ccccc2)cc1)c1ccccc1 [(R)-4-(phenylethynyl)-N-(2-phenylpropyl)benzamide] | 7.46 | – | – | –
2 | O=C(c1ccc(C#Cc2ccccc2)cc1)N1CCC(NC2CCCCC2)CC1 [(4-(cyclohexylamino)piperidin-1-yl)(4-(phenylethynyl)phenyl)methanone] | 7.11 | – | – | –
3 | O=C(c1ccc(C#Cc2ccccc2)cc1)N1CCC(O)(c2cccc(F)c2)CC1 [Compound 7f] | – | 92 | 5.80 | –
4 | O=C(NC1CCCC1)c1ccc(C#Cc2ccccc2)cc1 [N-cyclopentyl-4-(phenylethynyl)benzamide] | 8.56 | – | – | –
5 | O=C(c1ccc(C#Cc2ccccc2)cc1)N1CCC(O)(c2cccc(F)c2)CC1 [drawing 160, (4-(3-fluorophenyl)-4-hydroxypiperidin-1-yl)(4-(phenylethynyl)phenyl)methanone] | 5.75 | – | – | –
6 | CN1CCCC1CCNC(=O)c1ccc(C#Cc2ccccc2)cc1 (stereo not drawn) [N-(2-(1-methylpyrrolidin-2-yl)ethyl)-4-(phenylethynyl)benzamide] | 5.45 | – | – | –
7 | CC(C)(C)CCNC(=O)c1ccc(-c2nc(-c3ccccc3)no2)cc1 [N-(3,3-dimethylbutyl)-4-(3-phenyl-1,2,4-oxadiazol-5-yl)benzamide] | 5.94 | – | – | –
8 | CN1CCN(C2CCN(C(=O)c3ccc(C#Cc4ccccc4)cc3)CC2)CC1 [(4-(4-methylpiperazin-1-yl)piperidin-1-yl)(4-(phenylethynyl)phenyl)methanone] | 6.88 | – | – | –
9 | O=C(c1ccc(C#Cc2ccccc2)cc1)n1c(=O)n(C2CCNCC2)c2cc(Cl)ccc21 [5-chloro-1-(4-(phenylethynyl)benzoyl)-3-(piperidin-4-yl)-1H-benzo[d]imidazol-2(3H)-one] | 5.43 | – | – | –
10 | O=C(c1ccc(C#Cc2ccccc2)cc1)N1CCC(O)(c2cccs2)CC1 [Compound 7d, (4-hydroxy-4-(thiophen-2-yl)piperidin-1-yl)(4-(phenylethynyl)phenyl)methanone] | 5.97 | 95 | 6.00 | –
11 | O=C(c1ccc(C#Cc2ccccc2)cc1)N1CCC(N2CCN(c3ccncc3)CC2)CC1 [(4-(phenylethynyl)phenyl)(4-(4-(pyridin-4-yl)piperazin-1-yl)piperidin-1-yl)methanone] | 6.95 | – | – | –
12 | O=C(NCCN1CCOCC1)c1ccc(C#Cc2ccccc2)cc1 [N-(2-morpholinoethyl)-4-(phenylethynyl)benzamide] | 6.86 | – | – | –
13 | COCCCNC(=O)c1ccc(-c2nc(-c3ccc(F)cc3)no2)cc1 [4-(3-(4-fluorophenyl)-1,2,4-oxadiazol-5-yl)-N-(3-methoxypropyl)benzamide] | 5.95 | – | – | –
14 | O=C(NCCc1ccc(Br)cc1)c1ccc(C#Cc2ccccc2)cc1 [N-(4-bromophenethyl)-4-(phenylethynyl)benzamide] | 6.63 | – | – | –
15 | O=C(c1ccc(C#Cc2ccc(F)c(F)c2)cc1)N1CCC(CO)CC1 [Compound 20h, (4-((3,4-difluorophenyl)ethynyl)phenyl)(4-(hydroxymethyl)piperidin-1-yl)methanone] | 7.09 | – | 7.12 | 104
16 | O=C(c1ccc(C#Cc2cc(F)cc(F)c2)cc1)N1CCC(O)CC1 [Compound 19e, (4-((3,5-difluorophenyl)ethynyl)phenyl)(4-hydroxypiperidin-1-yl)methanone] | 6.00 | – | 6.23 | 67
17 | O=C(c1ccc(C#Cc2cccc(F)c2)cc1)N1CCC(O)CC1 [Compound 19b, (4-((3-fluorophenyl)ethynyl)phenyl)(4-hydroxypiperidin-1-yl)methanone] | 8.49 | – | 8.49 | 77
18 | O=C(c1ccc(C#Cc2ccccc2F)cc1)N1CCC(CO)CC1 [Compound 20e, (4-((2-fluorophenyl)ethynyl)phenyl)(4-(hydroxymethyl)piperidin-1-yl)methanone] | 7.63 | – | 7.69 | 88
19 | CCN1CCC[C@H]1CNC(=O)c1ccc(C#Cc2ccccc2)cc1 [(S)-N-((1-ethylpyrrolidin-2-yl)methyl)-4-(phenylethynyl)benzamide] | 5.99 | – | – | –
